The target of the assay is recombinant human GST-Syk (Homo sapiens (Human), UniProt P43405). Kind of assay: Homogeneous Time-Resolved Fluorescence (HTRF) Assay for the Recombinant Human Syk Enzyme. It is filed as biochemical. Particulars: recombinant human GST-Syk 5 pM, ATP 25 μM. As for the experimental part:
Homogeneous Time-Resolved Fluorescence (HTRF) Assay for the Recombinant Human Syk Enzyme:
A recombinant GST-hSyk fusion protein was used to measure potency of compounds to inhibit human Syk activity. The recombinant human GST-Syk (Carna Biosciences #08-176) (5 pM final concentration) was incubated with various concentrations of the inhibitor diluted in DMSO (0.1% final concentration) for 10 minutes at room temperature in 15 mM Tris-HCl (pH 7.5), 0.01% tween 20, 2 mM DTT in 384 well plate format. To initiate the reaction the biotinylated substrate peptide (250 nM final concentration) that contains the phosphorylation site for Syk was added with magnesium (5 mM final concentration) and ATP (25 μM final concentration). Final volume of the reaction was 10 μL. Phosphorylation of the peptide was allowed to proceed for 45′ at room temperature. To quench the reaction and detect the phosphorylated product, 2 nM of a Europium-anti-phosphotyrosine antibody (Perkin Elmer #AD0161) and 70 nM SA-APC (Perkin-Elmer #CR130-100) were added together in 15 mM Tris pH 7.5, 40 mM EDTA, 0.01% Tween 20. Final volume of the quenching solution was 10 μL. The resulting HTRF signal was measured after 30 minutes on a EnVision (Perkin-Elmer) reader using a time-resolved fluorescence protocol. […] IC50 values are also provided for the following representative compounds: […]

Where [1] appears, read: read-out: rhSyk Activity (IC50).
Where [2] appears, read: 10-dose titration, read-out: rhSyk.

Consider 21 compounds from patent publication US9290490B2 (Merck Sharp & Dohme Corp., priority 2011, dated 2016).

Structures can show the parent of a compound that is named as a salt. Where two headings read alike, the source gives them in different places. Where only a bound is given, the exact number is not on record here.

In the case of `Cc1cc(Nc2nccc(C(F)(F)F)n2)cc(-c2cnc(C(=O)C3CCC(=O)CC3(C)C)s2)c1` (racemic) [Example 11, N-(3-{2-[(2,2-dimethyl-4-oxocyclohexyl)carbonyl]-1,3-thiazol-5-yl}-5-methylphenyl)-4-(trifluoromethyl)pyrimidin-2-aminium trifluoroacetate], the IC50 under setting [1] lay in the range of 0.1 to 1 µM.
Same read-out and setting: the result for `CCCCOC(=O)[C@H]1CC[C@H](C(C)(O)c2ncc(-c3cc(C)cc(Nc4nccc(C(F)(F)F)n4)c3)s2)CC1` (relative stereo) [Example 1, Step 1, butyl trans-4-{1-hydroxy-1-[5-(3-methyl-5-{[4-(trifluoromethyl)pyrimidin-2-yl]amino}-phenyl)-1,3-thiazol-2-yl]ethyl}cyclohexanecarboxylate] reads at most 0.1 µM.
Regarding `CCCCOC(=O)[C@H]1CC[C@H](C(C)(O)c2ncc(-c3cc(C)cc(Nc4nccc(C(F)F)n4)c3)s2)CC1` (single isomer, unassigned), the IC50 under setting [1] fell in the range of 0.1 to 1 µM.
On the same count and under the same terms, the value for `Cc1cc(Nc2nccc(C(F)(F)F)n2)cc(-c2cnc([C@@](O)(C3CC3)[C@H]3CC[C@H](C(=O)O)CC3)s2)c1` (single isomer, unassigned) [Example 2 (from Intermediate 28 faster eluting enantiomer), trans-4-{(R or S)-cyclopropyl(hydroxy)[5-(3-methyl-5-{[4-(trifluoromethyl)pyrimidin-2-yl]amino}phenyl)-1,3-thiazol-2-yl]methyl}cyclohexanecarboxylic acid] was at most 0.1 µM.
Still for that read-out and setting: the result for `Cc1cc(Nc2nccc(C(F)(F)F)n2)cc(-c2cnc([C@@](O)(C3CC3)[C@H]3CC[C@H](C(=O)O)CC3)s2)c1` (single isomer, unassigned) [Example 2 (from Intermediate 28 slower eluting enantiomer), trans-4-{(R or S)-cyclopropyl(hydroxy)[5-(3-methyl-5-{[4-(trifluoromethyl)pyrimidin-2-yl]amino}phenyl)-1,3-thiazol-2-yl]methyl}cyclohexanecarboxylic] reads at most 0.1 µM.
Turning to `Cc1cc(Nc2nccc(C)n2)cc(-c2cnc(C(C)(O)[C@H]3CC[C@H](C(=O)O)CC3)s2)c1` (single isomer, unassigned) [Example 2-52, trans-4-[(1R or S)-hydroxy-1-(5-{3-methyl-5-[(4-methylpyrimidin-2-yl)amino]phenyl}-1,3-thiazol-2-yl)ethyl]cyclohexanecarboxylic acid], the IC50 by setting is: under setting [2], 0.001 µM; under setting [1], at most 0.1 µM.
With `Cc1cc(Nc2nccc(C(F)F)n2)cc(-c2cnc(C(C)(O)[C@H]3CC[C@H](C(=O)O)CC3)s2)c1` (single isomer, unassigned) [Example 2-77, trans-4-{(1R or S)-[5-(3-{[4-(difluoromethyl)pyrimidin-2-yl]amino}-5-methylphenyl)-1,3-thiazol-2-yl]-1-hydroxyethyl}cyclohexanecarboxylic acid], the IC50 was below 0.0005 µM under setting [2] and at most 0.1 µM under setting [1].
In the case of `Cc1cc(Nc2nccc(C(F)(F)F)n2)cc(-c2cnc(C(C)(O)C3CCC(C)(C(=O)O)CC3)s2)c1` (single isomer, unassigned) [Example 3 (isomer 3), 4-{1-hydroxy-1-[5-(3-methyl-5-{[4-(trifluoromethyl)pyrimidin-2-yl]amino}phenyl)-1,3-thiazol-2-yl]ethyl}-1-methylcyclohexanecarboxylic acid], the IC50 under setting [1] is at most 0.1 µM.
Still for that read-out and setting: the result for `Cc1cc(Nc2nccc(C)n2)cc(-c2cnc(CC3(O)CCC(C(=O)OC(C)(C)C)CC3)s2)c1` (single isomer, unassigned) [Example 5, Step 3 (cis isomer), tert-butyl cis-4-hydroxy-4-[(5-{3-methyl-5-[(4-methylpyrimidin-2-yl)amino]phenyl}-1,3-thiazol-2-yl)methyl]cyclohexanecarboxylate] reads 0.1 to 1 µM.
With `Cc1cc(Nc2nccc(C)n2)cc(-c2cnc(CC3(O)CCC(C(=O)OC(C)(C)C)CC3)s2)c1` (single isomer, unassigned) [Example 5, Step 3 (trans isomer), tert-butyl trans-4-hydroxy-4-[(5-{3-methyl-5-[(4-methylpyrimidin-2-yl)amino]phenyl}-1,3-thiazol-2-yl)methyl]cyclohexanecarboxylate], the IC50 runs as follows: under setting [2], 0.318 µM; under setting [1], 0.1 to 1 µM.
As for `Cc1cc(Nc2nccc(C(F)(F)F)n2)cc(-c2cnc(C(C)(O)[C@H]3CC[C@H](c4nn[nH]n4)CC3)s2)c1` (single isomer, unassigned) [Example 6 (faster eluting enantiomer), 2-{[3-(2-{1-hydroxy-1-[trans-4-(2H-tetrazol-5-yl)cyclohexyl]ethyl}-1,3-thiazol-5-yl)-5-methylphenyl]amino}-4-(trifluoromethyl)pyrimidin-1-ium trifluoroacetate], under setting [1], the IC50 was at most 0.1 µM.
For the compound `Cc1cc(Nc2nccc(C(F)(F)F)n2)cc(-c2cnc(C(C)(O)[C@H]3CC[C@H](c4nn[nH]n4)CC3)s2)c1` (single isomer, unassigned) [Example 6 (slower eluting enantiomer), 2-{[3-(2-{1-hydroxy-1-[trans-4-(2H-tetrazol-5-yl)cyclohexyl]ethyl}-1,3-thiazol-5-yl)-5-methylphenyl]amino}-4-(trifluoromethyl)pyrimidin-1-ium trifluoroacetate], the IC50 under setting [1] was at most 0.1 µM.
On the same count and under the same terms, the value for `Cc1ccnc(Nc2cc(C)c(Br)c(-c3cnc([C@](C)(O)[C@H]4CC[C@H](C(=O)O)CC4)s3)c2)n1` (single isomer, unassigned) [Example 8, trans-4-[(1R or 1S)-1-(5-{2-bromo-3-methyl-5-[(4-methylpyrimidin-2-yl)amino]phenyl}-1,3-thiazol-2-yl)-1-hydroxyethyl]cyclohexanecarboxylic acid] was at most 0.1 µM; that for `Cc1cc(Nc2nccc(C)n2)cc(-c2cnc(C[C@H]3CC[C@@H](C(=O)O)CC3)s2)c1` (single isomer, unassigned) [Example 13 (cis, faster eluting isomer), cis-4-[(5-{3-methyl-5-[(4-methylpyrimidin-2-yl)amino]phenyl}-1,3-thiazol-2-yl)methyl]cyclohexanecarboxylic acid] was at most 0.1 µM.
Same read-out and setting: the result for `Cc1cc(Nc2nccc(C)n2)cc(-c2cnc(C[C@H]3CC[C@H](C(=O)O)CC3)s2)c1` (single isomer, unassigned) [Example 13 (trans, slower eluting isomer), trans-4-[(5-{3-methyl-5-[(4-methylpyrimidin-2-yl)amino]-phenyl}-1,3-thiazol-2-yl)methyl]cyclohexanecarboxylic acid] reads at most 0.1 µM.
For the compound `C[C@](O)(c1ncc(-c2cc(CO)cc(Nc3nccc(C(F)(F)F)n3)c2)s1)[C@H]1CC[C@H](C(=O)O)CC1` (single isomer, unassigned) [Example 15, trans-4-[(1R or 1S)-1-hydroxy-1-{5-[3-(hydroxymethyl)-5-{[4-(trifluoromethyl)pyrimidin-2-yl]amino}phenyl]-1,3-thiazol-2-yl}ethyl]cyclohexanecarboxylic acid], the IC50 runs as follows: under setting [2], below 0.0005 µM; under setting [1], at most 0.1 µM.
Turning to `CC(O)(c1ncc(-c2cc(Nc3nccc(C(F)(F)F)n3)cc(C3CC3)c2)s1)[C@H]1CC[C@H](C(=O)O)CC1` (single isomer, unassigned) [Example 16, trans-4-{(1R or 1S)-[5-(3-cyclopropyl-5-{[4-(trifluoromethyl)pyrimidin-2-yl]amino}phenyl)-1,3-thiazol-2-yl]-1-hydroxyethyl}cyclohexanecarboxylic acid], the IC50 by setting is: under setting [2], 0.001 µM; under setting [1], at most 0.1 µM.
For `C[C@@](O)(c1ncc(-c2cc(F)cc(Nc3nccc(C(F)(F)F)n3)c2)s1)[C@H]1CC[C@H](C(=O)O)CC1` (single isomer, unassigned) [Example 17, trans-4-{(1R or 1S)-1-[5-(3-fluoro-5-{[4-(trifluoromethyl)pyrimidin-2-yl]amino}phenyl)-1,3-thiazol-2-yl]-1-hydroxyethyl}cyclohexanecarboxylic acid], in that order: 0.001 µM and at most 0.1 µM.
With `CC(O)(c1ncc(-c2cc(Nc3nccc(C(F)(F)F)n3)cc(C(F)F)c2)s1)[C@H]1CC[C@H](C(=O)O)CC1` (single isomer, unassigned) [Example 18, trans-4-((1R or 1S)-{5-[3-(difluoromethyl)-5-{[4-(trifluoromethyl)pyrimidin-2-yl]amino}phenyl]-1,3-thiazol-2-yl}-1-hydroxyethyl)cyclohexanecarboxylic acid], the IC50 reads like this: under setting [2], below 0.0005 µM; under setting [1], at most 0.1 µM.
With `Cc1cc(Nc2nccc(C)n2)cc(-c2cnc(C[C@]3(O)CC[C@H](C(=O)O)CC3)s2)c1` [5 (trans isomer), trans-4-hydroxy-4-[(5-{3-methyl-5-[(4-methylpyrimidin-2-yl)amino]phenyl}-1,3-thiazol-2-yl)methyl]cyclohexanecarboxylic acid], the IC50 under setting [1] is at most 0.1 µM.
`Cc1cc(Nc2nccc(C(F)(F)F)n2)cc(-c2cnc(C(=O)C3CCC4(CC3)OCCO4)s2)c1` [Example 1-20, 1,4-dioxaspiro[4.5]dec-8-yl[5-(3-methyl-5-{[4-(trifluoromethyl)pyrimidin-2-yl]amino}phenyl)-1,3-thiazol-2-yl]methanone]: the IC50 under setting [1] was 0.1 to 1 µM.
